Here are results for one compound from US8377468B2, “Dry wound dressing and drug delivery system” (Rexaderm, Inc., priority 2006, dated 2013).

The assay relates to diabetic leg ulcer. The assay can be described thus: Case report: treatment of a diabetic leg ulcer. Format: in vivo, human. The source says: FIG. 1-6 are a series of 6 pictures taken sequentially after treatment of a leg ulcer, which had persisted for over 6 months without healing, using the dry dressing described herein that contained human cellular fibronectin (cFN).
The cFN dressing was held on with either a 4×4 sponge and tape or with a BAND-AID™ (adhesive bandage).
A few months after the lesion occurred, a dermatologist obtained a biopsy sample, and the ulcer became infected, resulting in a larger lesion that was greatly inflamed. The lesion was treated with Avelox™. It appeared to heal in a few months, when the patient removed what appeared to be dead skin. The lesion opened again, and the patient treated it with Neosporin, Iodine, and Merthiolate. The dermatologist took a swab of the lesion. After the patient used the Bactro-Ban (Muciprocin) recommended by the dermatologist for two weeks, the wound became worse so the patient sealed it with Merthiolate. A bleeding lesion the size of a nickel persisted. The patient began treatment with cFN wound dressing of Example 2 about two weeks later, changing the dressing every 48 hours except for the first day. (The first change was at 24 hours). For the first 4 days, the material was fixed to the wound with a 4×4 gauze pad and an ACE bandage, then with a Band-Aid. […]

Regarding `C/C(=C\C(=O)OCCCCCCCCC(=O)O)C[C@@H]1OC[C@H](C[C@@H]2O[C@H]2[C@@H](C)[C@H](C)O)[C@@H](O)[C@H]1O` [Bactro-Ban, Muciprocin], the lesion size (FIG. 1, after wound was treated for two weeks) is given as 12-15 mm. Besides, the wound outcome (used for two weeks) is “became worse”.
